Experimental data as given in US11919883B2, “Metalloenzyme inhibitor compounds” (Ji Xing Pharmaceuticals Hong Kong Limited, priority 2016, dated 2024).

Legend:
[1] = biological target: T1, recombinant human CYP11B1 (Homo sapiens, UniProt P15538); assay: CYP11B1 enzyme assay, enzyme enriched microsomes from V79-4 cells, cortisol by LC-MS; format: biochemical; details: IC50 ranges; run at Km of 11-deoxycortisol; read-out: hCYP11B1 IC50
T1 construct: made in house; host or cells: V79-4 cells (enzyme enriched microsomal fraction of cell lysates)
T1 sequence (P15538 25-503): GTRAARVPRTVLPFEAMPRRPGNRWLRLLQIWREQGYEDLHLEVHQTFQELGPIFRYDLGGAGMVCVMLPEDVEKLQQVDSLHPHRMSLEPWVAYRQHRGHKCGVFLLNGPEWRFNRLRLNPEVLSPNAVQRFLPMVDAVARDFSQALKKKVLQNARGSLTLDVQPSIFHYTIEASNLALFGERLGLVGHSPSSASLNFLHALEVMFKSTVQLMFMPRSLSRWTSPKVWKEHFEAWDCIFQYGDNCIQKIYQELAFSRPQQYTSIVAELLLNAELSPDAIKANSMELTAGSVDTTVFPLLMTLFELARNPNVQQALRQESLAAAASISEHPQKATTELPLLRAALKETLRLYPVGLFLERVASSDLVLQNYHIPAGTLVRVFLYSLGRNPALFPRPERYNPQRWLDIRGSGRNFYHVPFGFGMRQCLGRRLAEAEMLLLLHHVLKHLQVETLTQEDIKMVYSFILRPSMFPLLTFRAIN
Description: (§1) An enzyme enriched microsomal fraction was prepared from cellular lysates and subsequently used as the enzyme source for determining inhibitor IC50s. […] Enzyme assays for inhibitor screening employed CYP11B2 and CYP11B1 enzyme enriched microsomes and were run at the Km of the respective substrates. Products of the enzyme reactions, aldosterone for CYP11B2 or cortisol for CYP11B1, were measured by LC-MS. Assays were run under conditions of less than 20% substrate turnover. Inhibitor IC50s were generated by determining the product formation in the absence or presence of inhibitor at various concentrations. In the absence of the test compound, the product formed (Pt) in each data set was defined as 100% activity. In the absence of enzyme, the product formed (Pb) in each data set was defined as 0% activity. The percent activity in the presence of each inhibitor was calculated according to the following equation: % activity=(P−Pb)/(Pt−Pb), where P=the product formed in the presence of the inhibitor.

[2] = biological target: T2, recombinant human CYP11B2 (Homo sapiens, UniProt P19099); assay: CYP11B2 enzyme assay, enzyme enriched microsomes from V79-4 cells, aldosterone by LC-MS; format: biochemical; details: IC50 ranges; run at Km of 11-deoxycorticosterone; read-out: hCYP11B2 IC50
T2 construct: made in house; host or cells: V79-4 cells (enzyme enriched microsomal fraction of cell lysates)
T2 sequence (P19099 25-503): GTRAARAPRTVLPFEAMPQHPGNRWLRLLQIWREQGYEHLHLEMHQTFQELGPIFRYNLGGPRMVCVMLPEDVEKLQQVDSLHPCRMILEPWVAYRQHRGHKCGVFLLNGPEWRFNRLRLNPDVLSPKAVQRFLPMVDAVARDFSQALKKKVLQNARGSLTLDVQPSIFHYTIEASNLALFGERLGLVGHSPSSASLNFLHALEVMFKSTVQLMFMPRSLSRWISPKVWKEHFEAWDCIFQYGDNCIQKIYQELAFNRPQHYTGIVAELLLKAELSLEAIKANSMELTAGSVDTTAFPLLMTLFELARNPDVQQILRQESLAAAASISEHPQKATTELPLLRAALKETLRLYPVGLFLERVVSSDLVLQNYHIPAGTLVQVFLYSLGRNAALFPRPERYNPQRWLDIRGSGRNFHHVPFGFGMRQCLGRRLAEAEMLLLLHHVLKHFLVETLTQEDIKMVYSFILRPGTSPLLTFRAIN
Description: as §1

| IC50 [1] [µM] | IC50 [2] [µM] | SMILES |
| --- | --- | --- |
| > 10 | 0.1 to 1 | COc1ccc2nc(-c3cncnc3)n(C3CC3)c2c1 [Example 25, 1-Cyclopropyl-6-methoxy-2-(pyrimidin-5-yl)-1H-benzo[d]imidazole] |
| 1 to 10 | 0.001 to 0.1 | FC(F)(F)c1ncncc1-c1nc2ccc(Cl)nc2n1C1CC1 [Example 61, 5-Chloro-3-cyclopropyl-2-(4-(trifluoromethyl)pyrimidin-5-yl)-3H-imidazo[4,5-b]pyridine] |
| 1 to 10 | 0.001 to 0.1 | CCn1c(-c2cncnc2C(C)C)nc2ccc(C#N)cc21 [Example 41, 1-Ethyl-2-(4-isopropylpyrimidin-5-yl)-1H-benzo[d]imidazole-6-carbonitrile] |
| 1 to 10 | 0.001 to 0.1 | Cc1ncncc1-c1nc2ccc(C#N)cc2n1C1CC1 [Example 21, 1-Cyclopropyl-2-(4-methylpyrimidin-5-yl)-1H-benzo[d]imidazole-6-carbonitrile] |
| 1 to 10 | 0.001 to 0.1 | Fc1ccc2nc(-c3cncnc3Cl)n(C3CC3)c2c1 [Example 9, 2-(4-Chloropyrimidin-5-yl)-1-cyclopropyl-6-fluoro-1H-benzo[d]imidazole] |
| 1 to 10 | 0.001 to 0.1 | Cc1ncncc1-c1nc2ccc(C#N)nc2n1C1CC1 [Example 52, 3-Cyclopropyl-2-(4-methylpyrimidin-5-yl)-3H-imidazo[4,5-b]pyridine-5-carbonitrile] |
| > 10 | 0.1 to 1 | COc1ccc2nc(-c3cncnc3C)n(C3CC3)c2n1 [Example 58, 3-Cyclopropyl-5-methoxy-2-(4-methylpyrimidin-5-yl)-3H-imidazo[4,5-b]pyridine] |
| 1 to 10 | 0.001 to 0.1 | CC(C)c1ncncc1-c1nc2ccc(C#N)cc2n1C1CC1 [Example 28, 1-Cyclopropyl-2-(4-isopropylpyrimidin-5-yl)-1H-benzo[d]imidazole-6-carbonitrile] |
| > 10 | 0.1 to 1 | CC(C)(O)c1ncncc1-c1nc2ccc(C#N)cc2n1C1CC1 [Example 73, 1-Cyclopropyl-2-(4-(2-hydroxypropan-2-yl)pyrimidin-5-yl)-1H-benzo[d]imidazole-6-carbonitrile] |
| > 10 | 0.1 to 1 | Cc1ncncc1-c1nc2ccc(C#N)cc2n1CC(F)(F)F [Example 49, 2-(4-Methylpyrimidin-5-yl)-1-(2,2,2-trifluoroethyl)-1H-benzo[d]imidazole-6-carbonitrile] |
| 1 to 10 | 0.001 to 0.1 | FC(F)c1ncncc1-c1nc2ccc(Cl)cc2n1C1CC1 [Example 50, 6-Chloro-1-cyclopropyl-2-(4-(difluoromethyl)pyrimidin-5-yl)-1H-benzo[d]imidazole] |
| 1 to 10 | 0.001 to 0.1 | Clc1ccc2nc(-c3cncnc3)n(C3CC3)c2c1 [Example 23, 6-Chloro-1-cyclopropyl-2-(pyrimidin-5-yl)-1H-benzo[d]imidazole] |
| > 10 | 0.1 to 1 | COc1ncncc1-c1nc2ccc(F)cc2n1C1CC1 [Example 6, 1-Cyclopropyl-6-fluoro-2-(4-methoxypyrimidin-5-yl)-1H-benzo[d]imidazole] |
| 1 to 10 | 0.001 to 0.1 | Cc1ncncc1-c1nc2ccc(Cl)nc2n1C1CC1 [Example 48, 5-Chloro-3-cyclopropyl-2-(4-methylpyrimidin-5-yl)-3H-imidazo[4,5-b]pyridine] |
| 0.1 to 1 | 0.001 to 0.1 | Fc1cc2nc(-c3cncnc3NCC(F)(F)F)n(C3CC3)c2cc1F [Example 36, 5-(1-Cyclopropyl-5,6-difluoro-1H-benzo[d]imidazol-2-yl)-N-(2,2,2-trifluoroethyl)pyrimidin-4-amine] |
| 1 to 10 | 0.001 to 0.1 | CCc1ncncc1-c1nc2cc(F)c(F)cc2n1C1CC1 [Example 45, 1-Cyclopropyl-2-(4-ethylpyrimidin-5-yl)-5,6-difluoro-1H-benzo[d]imidazole] |
| 1 to 10 | 0.001 to 0.1 | Fc1ccc2nc(-c3cncnc3C(F)F)n(C3CC3)c2c1 [Example 15, 1-Cyclopropyl-2-(4-(difluoromethyl)pyrimidin-5-yl)-6-fluoro-1H-benzo[d]imidazole] |

| IC50 [1] [µM] | IC50 [2] [µM] | SMILES |
| --- | --- | --- |
| 1 to 10 | 0.001 to 0.1 | N#Cc1ccc2nc(-c3cncnc3)n(C3CC3)c2c1 [Example 3, 1-Cyclopropyl-2-(pyrimidin-5-yl)-1H-benzo[d]imidazole-6-carbonitrile] |
| 1 to 10 | 0.001 to 0.1 | N#Cc1ccc2nc(-c3cncnc3C(F)(F)F)n(C3CC3)c2c1 [Example 60, 1-Cyclopropyl-2-(4-(trifluoromethyl)pyrimidin-5-yl)-1H-benzo[d]imidazole-6-carbonitrile] |
| 1 to 10 | 0.1 to 1 | FC(F)c1ncncc1-c1nc2ccc(Cl)nc2n1C1CC1 [Example 62, 5-Chloro-3-cyclopropyl-2-(4-(difluoromethyl)pyrimidin-5-yl)-3H-imidazo[4,5-b]pyridine] |
| 0.1 to 1 | 0.001 to 0.1 | CCCc1ncncc1-c1nc2ccc(C#N)cc2n1C1CC1 [Example 40, 1-Cyclopropyl-2-(4-propylpyrimidin-5-yl)-1H-benzo[d]imidazole-6-carbonitrile] |
| 1 to 10 | 0.001 to 0.1 | Cc1ncncc1-c1nc2ccc(F)cc2n1C1CC1 [Example 4, 1-Cyclopropyl-6-fluoro-2-(4-methylpyrimidin-5-yl)-1H-benzo[d]imidazole] |
| > 10 | 0.1 to 1 | Fc1cc2nc(-c3cncnc3C3CC3)n(C3CC3)c2cc1F [Example 72, 1-Cyclopropyl-2-(4-cyclopropylpyrimidin-5-yl)-5,6-difluoro-1H-benzo[d]imidazole] |
| > 10 | > 10 | Cc1ncnc(C)c1-c1nc2ccc(F)cc2n1C1CC1 [Example 29, 1-Cyclopropyl-2-(4,6-dimethylpyrimidin-5-yl)-6-fluoro-1H-benzo[d]imidazole] |
| 1 to 10 | 0.001 to 0.1 | CC(F)(F)c1ncncc1-c1nc2cc(F)c(F)cc2n1C1CC1 [Example 71, 1-Cyclopropyl-2-(4-(1,1-difluoroethyl)pyrimidin-5-yl)-5,6-difluoro-1H-benzo[d]imidazole] |
| 0.1 to 1 | 0.001 to 0.1 | Fc1cc2nc(-c3cncnc3NCCC(F)(F)F)n(C3CC3)c2cc1F [Example 37, 5-(1-Cyclopropyl-5,6-difluoro-1H-benzo[d]imidazol-2-yl)-N-(3,3,3-trifluoropropyl)pyrimidin-4-amine] |
| > 10 | 1 to 10 | N#Cc1ccc2nc(-c3cncnc3)n(CC(F)(F)F)c2c1 [Example 43, 2-(Pyrimidin-5-yl)-1-(2,2,2-trifluoroethyl)-1H-benzo[d]imidazole-6-carbonitrile] |
| > 10 | 0.1 to 1 | Cc1ncncc1-c1nc2cnc(Cl)cc2n1C1CC1 [Example 55, 6-Chloro-1-cyclopropyl-2-(4-methylpyrimidin-5-yl)-1H-imidazo[4,5-c]pyridine] |
| > 10 | 1 to 10 | Cc1ncc(-c2nc3ccc(F)cc3n2C2CC2)cn1 [Example 20, 1-Cyclopropyl-6-fluoro-2-(2-methylpyrimidin-5-yl)-1H-benzo[d]imidazole] |
| 1 to 10 | 0.001 to 0.1 | N#Cc1ccc2nc(-c3cncnc3C(F)F)n(C3CC3)c2n1 [Example 63, 3-Cyclopropyl-2-(4-(difluoromethyl)pyrimidin-5-yl)-3H-imidazo[4,5-b]pyridine-5-carbonitrile] |
| 0.1 to 1 | 0.001 to 0.1 | CNc1ncncc1-c1nc2cc(F)c(F)cc2n1C1CC1 [Example 31, 5-(1-Cyclopropyl-5,6-difluoro-1H-benzo[d]imidazol-2-yl)-N-methylpyrimidin-4-amine] |
| > 10 | 0.001 to 0.1 | CCn1c(-c2cncnc2C(F)F)nc2ccc(C#N)cc21 [Example 51, 2-(4-(Difluoromethyl)pyrimidin-5-yl)-1-ethyl-1H-benzo[d]imidazole-6-carbonitrile] |
| 0.1 to 1 | 0.001 to 0.1 | CC(C)c1ncncc1-c1nc2cc(F)c(F)cc2n1C1CC1 [Example 22, 1-Cyclopropyl-5,6-difluoro-2-(4-isopropylpyrimidin-5-yl)-1H-benzo[d]imidazole] |
